{
  "source": "patent US20150223452A1",
  "about": "“COMPOSITION COMPRISING A PESTICIDAL TERPENE MIXTURE AND A FUNGICIDE” (priority 2012, published 2015)",
  "key": {"Phytophthora infestans": {"test_system": "Phytophthora infestans", "type": "in vivo", "settings": "3 days after inoculation"}, "Venturia inaequalis": {"test_system": "Venturia inaequalis", "experiment": "Venturia test (apples)/preventive"}, "Sphaerotheca fuliginea": {"test_system": "Sphaerotheca fuliginea", "experiment": "Sphaerotheca test (cucumbers)/preventive", "type": "in vivo", "settings": "7 days after inoculation"}, "[1]": {"test_system": "green peach aphid (Myzus persicae)", "experiment": "Myzus persicae spray test", "type": "in vivo", "settings": "500 g ai/ha; mortality, Chinese cabbage leaf-disks", "protocol": "(§1) Solvent: 78.0 parts by weight acetone • 1.5 parts by weight dimethylformamide\n(§2) Emulsifier: 0.5 parts by weight alkylarylpolyglycolether\n(§3) To produce a suitable preparation of active compound, 1 part by weight of active compound is mixed with the stated amount of solvent and emulsifier, and the concentrate is diluted with emulsifier-containing water to the desired concentration.\nChinese cabbage (Brassica pekinensis) leaf-disks infected with all instars of the green peach aphid (Myzus persicae) are sprayed with a preparation of the active ingredient of the desired concentration.\nAfter the specified period of time, mortality in % is determined. 100% means that all aphids have been killed; 0% means that none of the aphids have been killed. The mortality values determined thus are recalculated using the Colby-formula (see above)."}, "Botrytis cinerea": {"test_system": "Botrytis cinerea", "experiment": "Botrytis test (beans)/preventive", "settings": "10 ppm a.i.; size of lesions 2 days after inoculation"}, "[2]": {"test_system": "two spotted spidermite (Tetranychus urticae)", "experiment": "Tetranychus urticae spray test, OP-resistant", "type": "in vivo", "settings": "500 g ai/ha; mortality, French beans", "protocol": "as §1, §2, §3\nFrench beans (Phaseolus vulgaris) which are heavily infested with all stages of the two spotted spidermite (Tetranychus urticae), are sprayed with a preparation of the active ingredient of the desired concentration.\nAfter the specified period of time, mortality in % is determined. 100% means that all spider mites have been killed and 0% means that none of the spider mites have been killed. The mortality values determined thus are recalculated using the Colby-formula (see sheet 1)."}},
  "note": "Where two headings read alike, the source gives them in different places.",
  "data": [
    {"molecule": "CO/C=C(/C(=O)OC)c1ccccc1Oc1cc(Oc2ccccc2C#N)ncn1", "note": "[Azoxystrobin (F107), azoxystrobin]", "values": [
      {"measurement": "Efficacy in % found", "setting": "Phytophthora infestans; 0.5 ppm a.i.", "result": 30, "unit": "%"}
    ]},
    {"molecule": "O=C(NCCc1ncc(C(F)(F)F)cc1Cl)c1ccccc1C(F)(F)F", "note": "[F70 fluopyram, fluopyram]", "values": [
      {"measurement": "Efficacy in % found", "setting": "Venturia inaequalis; 4 ppm a.i., first series", "result": 4, "unit": "%"}
    ]},
    {"molecule": "Cn1cc(C(=O)Nc2ccccc2-c2cc(F)c(F)c(F)c2)c(C(F)F)n1", "note": "[F72 fluxapyroxad, fluxapyroxad]", "values": [
      {"measurement": "Efficacy in % found", "setting": "Sphaerotheca fuliginea; 1 ppm a.i.", "result": 29, "unit": "%"},
      {"measurement": "Efficacy in % found", "setting": "Venturia inaequalis; 0.5 ppm a.i., first series", "result": 43, "unit": "%"}
    ]},
    {"molecule": "Cc1nn(C)c(F)c1C(=O)Nc1ccccc1C(C)CC(C)C", "note": "(stereo not drawn) [F84 penflufen, penflufen]", "values": [
      {"measurement": "Efficacy in % found", "setting": "Venturia inaequalis; 2 ppm a.i., first series", "result": 0, "unit": "%"}
    ]},
    {"molecule": "CSC1=N[C@@](C)(c2ccccc2)C(=O)N1Nc1ccccc1", "note": "[Fenamidone (F114), fenamidone]", "values": [
      {"measurement": "Efficacy in % found", "setting": "Sphaerotheca fuliginea; 50 ppm a.i.", "result": 20, "unit": "%"}
    ]},
    {"molecule": "N#Cc1c[nH]cc1-c1cccc2c1OC(F)(F)O2", "note": "[Fludioxonil (F248), fludioxonil]", "values": [
      {"measurement": "Efficacy in % found", "setting": "Sphaerotheca fuliginea; 50 ppm a.i.", "result": 62, "unit": "%"}
    ]},
    {"molecule": "CC(C)Oc1cccc(NC(=O)c2ccccc2C(F)(F)F)c1", "note": "[Flutolanil (F71), flutolanil]", "values": [
      {"measurement": "Efficacy in % found", "setting": "Venturia inaequalis; 100 ppm a.i., second series", "result": 4, "unit": "%"}
    ]},
    {"molecule": "COCC(=O)N(c1c(C)cccc1C)C(C)C(=O)OC", "note": "(stereo not drawn) [Metalaxyl (F241), metalaxyl]", "values": [
      {"measurement": "Efficacy in % found", "setting": "Phytophthora infestans; 5 ppm a.i.", "result": 5, "unit": "%"}
    ]},
    {"molecule": "COC(=O)N(OC)c1ccccc1COc1ccn(-c2ccc(Cl)cc2)n1", "note": "[Pyraclostrobin (F121), pyraclostrobin]", "values": [
      {"measurement": "Efficacy in % after 6 d", "setting": "[1]", "result": 70, "unit": "%"}
    ]},
    {"molecule": "CCCN(CC)CC1COC2(CCC(C(C)(C)C)CC2)O1", "note": "(stereo not drawn) [Spiroxamine (F46), spiroxamine]", "values": [
      {"measurement": "Efficacy in % found", "setting": "Sphaerotheca fuliginea; 50 ppm a.i.", "result": 19, "unit": "%"}
    ]},
    {"molecule": "fenhexamid [Fenhexamid (F16)]", "values": [
      {"measurement": "Efficacy in % found", "setting": "Botrytis cinerea", "result": 880, "unit": "%"}
    ]},
    {"molecule": "fosetyl-aluminium [Fosetyl-Al (F281)]", "values": [
      {"measurement": "Efficacy in % after 6 d", "setting": "[2]", "result": 70, "unit": "%"}
    ]},
    {"molecule": "mancozeb [Mancozeb (F174)]", "values": [
      {"measurement": "Efficacy in % found", "setting": "Phytophthora infestans; 20 ppm a.i.", "result": 45, "unit": "%"}
    ]},
    {"molecule": "metalaxyl-M (mefenoxam) [Mefenoxam (F242)]", "values": [
      {"measurement": "Efficacy in % found", "setting": "Phytophthora infestans; 5 ppm a.i.", "result": 3, "unit": "%"}
    ]}
  ]
}
